Patent publication US20190071416A1, “COMPOUNDS FOR TREATMENT OF CANCER AND EPIGENETICS” (Agency For Science, Technology and Research, priority 2015, published 2019)

Molecular target: T1, SMYD3 (Homo sapiens, UniProt Q9H7B4)
T1 sequence (Q9H7B4 1-428): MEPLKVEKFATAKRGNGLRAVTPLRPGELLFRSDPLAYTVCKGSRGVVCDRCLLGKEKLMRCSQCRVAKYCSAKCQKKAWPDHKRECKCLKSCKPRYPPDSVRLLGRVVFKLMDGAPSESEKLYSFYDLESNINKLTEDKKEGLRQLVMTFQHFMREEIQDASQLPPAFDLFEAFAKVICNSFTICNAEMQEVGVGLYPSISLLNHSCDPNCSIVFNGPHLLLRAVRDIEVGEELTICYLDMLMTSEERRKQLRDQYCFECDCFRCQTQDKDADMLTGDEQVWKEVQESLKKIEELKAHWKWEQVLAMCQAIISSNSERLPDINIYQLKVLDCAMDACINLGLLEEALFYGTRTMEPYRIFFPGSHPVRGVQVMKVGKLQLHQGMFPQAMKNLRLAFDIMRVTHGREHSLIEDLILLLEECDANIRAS
Assay: SMYD3 biochemical assay (MTase-Glo, MAP3K2 peptide substrate)
Settings: Table 3; MTase assay, MAP3K2 peptide substrate; read-out: IC50
Protocol: A SMYD3 enzymatic assay was developed using Promega's Methyltransferase-Glo™ reagents. In the assay, SMYD3 catalyzes the methylation of the MAP3K2 peptide substrate by transferring a methyl group from SAM to MAP3K2 peptide and further converts the SAM to SAH. The SMYD3 methyltransferase activity is measured based on the amount of SAH produced from the reaction through the use of coupling enzymes that convert the SAH to ATP. The MTase-Glo detection solution then catalyzes the formation of light from ATP.
A final concentration of 1.0 μM and 10 μM SAM and MAP3K2 peptide were added and further incubated for 30 min at room temperature before adding the MTase Glo and detection reagent. Reaction signals were detected using microplate readers on luminescent mode (Safire Tecan). The IC50 was determined by non-linear regression, using GraphPad Prism version, 5.03.

Structure (SMILES)	IC50 [nM]
CCCOC(=O)N1CCN(C(=O)c2ccc3c(Cl)c4c(nc3c2)CCC(CC(=O)OC)C4)[C@H](C)C1 (stereo partly drawn) [A085, Propyl (3R)-4-(9-chloro-7-(2-methoxy-2-oxoethyl)-5,6,7,8-tetrahydroacridine-3-carbonyl)-3-methylpiperazine-1-carboxylate]	160
CCCOC(=O)N1CCN(C(=O)c2ccc3c(Cl)c4c(nc3c2)CC(CN)CC4)CC1 (centres unmarked) [A028, Propyl 4-(6-(aminomethyl)-9-chloro-5,6,7,8-tetrahydroacridine-3-carbonyl)piperazine-1-carboxylate]	380
CCCOC(=O)N1CCN(C(=O)c2ccc3c(Cl)c4c(nc3c2)CC(c2ccnc(C)c2)CC4)C[C@@H]1C (stereo partly drawn) [A123, Propyl (2S)-4-(9-chloro-6-(2-methylpyridin-4-yl)-5,6,7,8-tetrahydroacridine-3-carbonyl)-2-methylpiperazine-1-carboxylate]	140
CCCOC(=O)N1CCN(C(=O)c2ccc3c(Cl)c4c(nc3c2)CC(CN)CC4)[C@H](C)C1 (stereo partly drawn) [A102, Propyl (3R)-4-(6-(aminomethyl)-9-chloro-5,6,7,8-tetrahydroacridine-3-carbonyl)-3-methylpiperazine-1-carboxylate]	230
CCCOC(=O)N1CCN(C(=O)c2ccc3c(Cl)c4c(nc3c2)CC(CCN2CCCC2)CC4)CC1 (centres unmarked) [A121, Propyl 4-(9-chloro-6-(2-(pyrrolidin-1-yl)ethyl)-5,6,7,8-tetrahydroacridine-3-carbonyl)piperazine-1-carboxylate]	220
CCCOC(=O)N1CCN(C(=O)c2ccc3c(Cl)c4c(nc3c2)CC(c2ccnc(C#N)c2)CC4)[C@@H](C)C1 (stereo partly drawn) [A143, Propyl (3S)-4-(9-chloro-6-(2-cyanopyridin-4-yl)-5,6,7,8-tetrahydroacridine-3-carbonyl)-3-methylpiperazine-1-carboxylate]	460
CCCOC(=O)N1CCN(C(=O)c2ccc3c(Cl)c4c(nc3c2)CCC(C)C4)CC1 (centres unmarked) [A008, Propyl 4-(9-chloro-7-methyl-5,6,7,8-tetrahydroacridine-3-carbonyl)piperazine-1-carboxylate]	1300
CCCOC(=O)N1CCN(C(=O)c2ccc3c(Cl)c4c(nc3c2)CC(c2ccnc(C)c2)CC4)C[C@H]1C (stereo partly drawn) [A122, Propyl (2R)-4-(9-chloro-6-(2-methylpyridin-4-yl)-5,6,7,8-tetrahydroacridine-3-carbonyl)-2-methylpiperazine-1-carboxylate]	120
CCCOC(=O)N1CCN(C(=O)c2ccc3c(Cl)c4c(nc3c2)CC(c2ncccc2F)CC4)[C@@H](C)C1 (stereo partly drawn) [A100, Propyl (3S)-4-(9-chloro-6-(3-fluoropyridin-2-yl)-5,6,7,8-tetrahydroacridine-3-carbonyl)-3-methylpiperazine-1-carboxylate]	570
CCCOC(=O)N1CCN(C(=O)c2ccc3c(Cl)c4c(nc3c2)CC(CC(N)=O)CC4)CC1 (centres unmarked) [A077, Propyl 4-(6-(2-amino-2-oxoethyl)-9-chloro-5,6,7,8-tetrahydroacridine-3-carbonyl)piperazine-1-carboxylate]	1200
C=CCCC(=O)N1CCN(C(=O)c2ccc3c(Cl)c4c(nc3c2)CCCC4)CC1 [A050, 1-(4-(9-Chloro-5,6,7,8-tetrahydroacridine-3-carbonyl)piperazin-1-yl)pent-4-en-1-one]	3500

More lines, now with the values ahead:

IC50 [nM]	Structure (SMILES)
140	CCCOC(=O)N1CCN(C(=O)c2ccc3c(Cl)cc(-c4cccc5[nH]cnc45)nc3c2)CC1 [B187, Propyl 4-(2-(1H-benzo[d]imidazol-4-yl)-4-chloroquinoline-7-carbonyl)piperazine-1-carboxylate]
920	CCCOC(=O)N1CCN(C(=O)c2ccc3c(Cl)cc(-c4cccc(S(N)(=O)=O)c4)nc3c2)CC1 [B117, Propyl 4-(4-chloro-2-(3-sulfamoylphenyl)quinoline-7-carbonyl)piperazine-1-carboxylate]
630	CCCOC(=O)N1CCN(C(=O)c2ccc3c(Cl)cc(-c4ccn(S(=O)(=O)N(C)C)c4)nc3c2)CC1 [B231, Propyl 4-(4-chloro-2-(1-(N,N-dimethylsulfamoyl)-1H-pyrrol-3-yl)quinoline-7-carbonyl)piperazine-1-carboxylate]
130	CCCOC(=O)N1CCN(C(=O)c2ccc3c(Cl)cc(-c4cc(F)c(O)c(F)c4)nc3c2)C[C@H]1C [B217, Propyl (R)-4-(4-chloro-2-(3,5-difluoro-4-hydroxyphenyl)quinoline-7-carbonyl)-2-methylpiperazine-1-carboxylate]
460	CCCOC(=O)N1CCN(C(=O)c2ccc3c(Cl)cc(-c4ccc5occc5c4)nc3c2)CC1 [B203, Propyl 4-(2-(benzofuran-5-yl)-4-chloroquinoline-7-carbonyl)piperazine-1-carboxylate]
39	NCc1cc(-c2cc(Cl)c3ccc(C(=O)N4CCN(C(=O)c5cn(C6CC6)nn5)CC4)cc3n2)ccc1F [E019, (2-(3-(Aminomethyl)-4-fluorophenyl)-4-chloroquinolin-7-yl)(4-(1-cyclopropyl-1H-1,2,3-triazole-4-carbonyl)piperazin-1-yl)methanone]
150	CCCOC(=O)N1CCN(C(=O)c2ccc3c(Cl)cc(-c4ccc5[nH]ncc5c4)nc3c2)C[C@@H]1C [B169, Propyl (S)-4-(4-chloro-2-(1H-indazol-5-yl)quinoline-7-carbonyl)-2-methylpiperazine-1-carboxylate]
4	O=C(c1ccc2c(Cl)cc(-c3ccccc3)nc2c1)N1CCN(C(=O)c2cn(C3CC3)nn2)CC1 [D002, (4-Chloro-2-phenylquinolin-7-yl)(4-(1-cyclopropyl-1H-1,2,3-triazole-4-carbonyl)piperazin-1-yl)methanone]
120	CCCOC(=O)N1CCN(C(=O)c2ccc3c(Cl)cc(-c4ccc5c(c4)ncn5C)nc3c2)CC1 [B183, Propyl 4-(4-chloro-2-(1-methyl-1H-benzo[d]imidazol-5-yl)quinoline-7-carbonyl)piperazine-1-carboxylate]
13	CCCOC(=O)N1CCN(C(=O)c2ccc3c(Cl)cc(-c4ccc(C(C)(C)CN)cc4)nc3c2)C[C@H]1C [B282, Propyl (R)-4-(2-(4-(1-amino-2-methylpropan-2-yl)phenyl)-4-chloroquinoline-7-carbonyl)-2-methylpiperazine-1-carboxylate]
160	CCCOC(=O)N1CCN(C(=O)c2ccc3c(Cl)cc(-c4ccc(CN(C)C)cc4)nc3c2)CC1 [B110, Propyl 4-(4-chloro-2-(4-((dimethylamino)methyl)phenyl)quinoline-7-carbonyl)piperazine-1-carboxylate]
150	CCCOC(=O)N1CCN(C(=O)c2ccc3c(Cl)cc(-c4ccc5c(cnn5C)c4)nc3c2)CC1 [B123]
340	CCCOC(=O)N1CCN(C(=O)c2ccc3c(Cl)cc(-c4ccc(C#N)cc4)nc3c2)C[C@H]1C [B062, Propyl (R)-4-(4-chloro-2-(4-cyanophenyl)quinoline-7-carbonyl)-2-methylpiperazine-1-carboxylate]
35	CCCOC(=O)N1CCN(C(=O)c2ccc3c(Cl)cc(-c4ccc(OC)c(CNC)c4)nc3c2)CC1 [B120, Propyl 4-(4-chloro-2-(4-methoxy-3-((methylamino)methyl)phenyl)quinoline-7-carbonyl)piperazine-1-carboxylate]
550	CCCOC(=O)N1C2CCCC1CN(C(=O)c1ccc3c(Cl)ccnc3c1)C2 [C007, Propyl 3-(4-chloroquinoline-7-carbonyl)-3,9-diazabicyclo[3.3.1]nonane-9-carboxylate]
67	CCCOC(=O)N1CCN(C(=O)c2ccc3c(Cl)cc(-c4ccc(OC)c(CN)c4)nc3c2)C[C@@H]1C [B280, Propyl (S)-4-(2-(3-(aminomethyl)-4-methoxyphenyl)-4-chloroquinoline-7-carbonyl)-2-methylpiperazine-1-carboxylate]
1800	CCCOC(=O)N1CCN(C(=O)c2ccc3c(Cl)c(C)c(-c4ccc(C#N)cc4)nc3c2)CC1 [B037, Propyl 4-(4-chloro-2-(4-cyanophenyl)-3-methylquinoline-7-carbonyl)piperazine-1-carboxylate]
250	CCCOC(=O)N1CCN(C(=O)c2ccc3c(Cl)cc(-c4ccc(F)c(N)c4)nc3c2)CC1 [B180, Propyl 4-(2-(3-amino-4-fluorophenyl)-4-chloroquinoline-7-carbonyl)piperazine-1-carboxylate]
3300	CC(C)(O)c1ccc(-c2cc(Cl)c3ccc(C(=O)N4CCN(C(=O)OCCF)CC4)cc3n2)cc1 [B266, 2-Fluoroethyl 4-(4-chloro-2-(4-(2-hydroxypropan-2-yl)phenyl)quinoline-7-carbonyl)piperazine-1-carboxylate]
270	CC(C)COC(=O)N1CCN(C(=O)c2ccc3c(Cl)cc(-c4ccn(C)c4)nc3c2)CC1 [B246, Isobutyl 4-(4-chloro-2-(1-methyl-1H-pyrrol-3-yl)quinoline-7-carbonyl)piperazine-1-carboxylate]
110	CCCOC(=O)N1CCN(C(=O)c2ccc3c(Cl)cc(-c4ccc(OC)c(CO)c4)nc3c2)CC1 [B100, Propyl 4-(4-chloro-2-(3-(hydroxymethyl)-4-methoxyphenyl)quinoline-7-carbonyl)piperazine-1-carboxylate]
